This note sets out measurements from patent US10556865B2, “Synergistic herbicidal composition containing certain pyridine or pyrimidine carboxylic acids and certain cereal and rice herbicides” (Dow AgroSciences, LLC, priority 2007, dated 2020).

Each structure is given as a SMILES string. Read-outs that look alike come from different tables or passages of the source.

In test [1] the test system is scented mayweed (Matricaria chamomila L; MATCH). Briefly: Postemergence herbicidal activity of mixtures in cereal crops (greenhouse, visual injury). The test is classed as in vivo. Particulars: Matricaria, post-emergence, read-out: MATCH Ob. The method in brief:
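Weeds grown in greenhouse (~14 h photoperiod, ~18/17 °C day/night) to second–third true leaf stage, sprayed postemergence with compound and second cereal herbicide alone or combined; solvent-blank controls. Injury scored visually after 20-22 days, 0–100% (complete kill); expected mixture activity = A+B−(A×B/100).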

The subject of test [2] is Fimbristylis miliacea (L.) VAHL (FIMMI). Briefly: Herbicidal mixtures for weed control in transplanted paddy rice (in-water application, visual % injury). Format: in vivo. The method in brief:
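Weeds sown in flooded puddled mineral soil (pH ~7.3–7.8, ~1.0% organic matter) and treated at second–third true leaf stage by injecting acetone/2.5% Agri-dex stock into the paddy water. A, C and D dosed as acid equivalent, partner herbicides as active ingredient. Injury scored visually after 3 weeks in greenhouse, 0–100% versus untreated plants.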

For the molecule `COC(=O)c1nc(-c2ccc(Cl)c(OC)c2F)cc(N)c1Cl` [Compound A Methyl, 4-amino-3-chloro-6-(4-chloro-2-fluoro-3-methoxyphenyl)pyridine-2-carboxylic acid methyl ester], the pest or weed control at 17.5 g/ha in test [1] (17.5 g/ha) was 15%. Also, the pest or weed control at 35 g/ha in test [1] (35 g/ha) is 68%. The pest or weed control at 70 g/ha in test [1] (70 g/ha) worked out at 65%. Besides, in test [2] (17.5 g/ha alone), the “% Injury Ob” value is recorded as 20%. Also, the “% Injury FIMMI Ob” value in test [2] (Compound A Methyl 17.5 g/ha alone) worked out at 20%.

Regarding `O=C(O)c1c(Cl)ccc2cc(Cl)cnc12` [Quinclorac], the “% Injury FIMMI Ob” value in test [2] (Quinclorac 140 g/ha alone (Compound A Methyl half)) and in test [2] (Quinclorac 140 g/ha alone (Compound A TEA half)) was 0% in each case.

In the case of `COc1c(Cl)ccc(-c2cc(N)c(Cl)c(C(=O)O)n2)c1F` [Compound A TEA, 4-amino-3-chloro-6-(4-chloro-2-fluoro-3-methoxyphenyl)pyridine-2-carboxylic acid], the pest or weed control at 8.75 g/ha in test [1] (8.75 g/ha alone) and in test [1] (8.75 g/ha) was 71% throughout. In addition, the pest or weed control at 17.5 g/ha in test [1] (17.5 g/ha alone) and in test [1] (17.5 g/ha) was 76% throughout. The pest or weed control at 35 g/ha in test [1] (35 g/ha alone) is 84%. Also, the pest or weed control at 70 g/ha in test [1] (70 g/ha alone) stood at 94%. Moreover, in test [1] (140 g/ha), the pest or weed control at 140 g/ha amounted to 65%. Moreover, the figures for the “% Injury Ob” value in test [2] (17.5 g/ha alone), in test [2] (35 g/ha alone) and in test [2] (70 g/ha alone) were 30%, 0% and 0%, respectively. Moreover, in test [2] (Compound A TEA 17.5 g/ha alone), the “% Injury FIMMI Ob” value amounted to 30%.

For the molecule `COC(=O)c1nc(-c2ccc(Cl)c(OC)c2F)nc(N)c1Cl` [Compound B Methyl, 6-amino-5-chloro-2-(4-chloro-2-fluoro-3-methoxyphenyl)pyrimidine-4-carboxylic acid methyl ester], the pest or weed control at 8.75 g/ha in test [1] (8.75 g/ha alone) came to 10%. Besides, in test [1] (17.5 g/ha alone), the pest or weed control at 17.5 g/ha was 10%. Also, in test [1] (35 g/ha alone), the pest or weed control at 35 g/ha amounted to 40%. In addition, the pest or weed control at 70 g/ha in test [1] (70 g/ha alone) stood at 45%.
